# Experimental data as given in ChEMBL document CHEMBL1201862, “PubChem BioAssay data set” (2004).
# Active and inactive are the calls of the source.
# Legend:
# [1] = molecular target: Lysine-specific demethylase 4C (Homo sapiens, UniProt Q9H3R0); assay: inhibition of JMJD2C H3K9me3 demethylation – biochemical, DELFIA europium, cherry-picked samples, dose response (AID 488835); format: functional
# [2] = molecular target: Interleukin-8 (Homo sapiens, UniProt P10145); assay: Dose Response confirmation of uHTS small molecule hits for cystic fibrosis induced NFkb Inhibitors in a PAF-induced IL8 counterscreen.; format: functional; conditions: read-out: IC50_Mean
# Interleukin-8, sequence (P10145 whole entry): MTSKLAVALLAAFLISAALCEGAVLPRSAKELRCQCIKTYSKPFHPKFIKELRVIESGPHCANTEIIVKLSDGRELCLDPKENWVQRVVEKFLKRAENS
# [3] = molecular target: Latent membrane protein 1 (Human herpesvirus 4 (strain B95-8), UniProt P03230); assay: LMP1 TES1 pathway selectivity over dsRED control – imaging, HEK293T, dual-color eGFP/dsRED, cherry-picks, selectivity assay for LMP1 NF-kB inhibitor project, dose response (AID 588398); format: functional, cell-based
# Latent membrane protein 1, sequence (P03230 whole entry): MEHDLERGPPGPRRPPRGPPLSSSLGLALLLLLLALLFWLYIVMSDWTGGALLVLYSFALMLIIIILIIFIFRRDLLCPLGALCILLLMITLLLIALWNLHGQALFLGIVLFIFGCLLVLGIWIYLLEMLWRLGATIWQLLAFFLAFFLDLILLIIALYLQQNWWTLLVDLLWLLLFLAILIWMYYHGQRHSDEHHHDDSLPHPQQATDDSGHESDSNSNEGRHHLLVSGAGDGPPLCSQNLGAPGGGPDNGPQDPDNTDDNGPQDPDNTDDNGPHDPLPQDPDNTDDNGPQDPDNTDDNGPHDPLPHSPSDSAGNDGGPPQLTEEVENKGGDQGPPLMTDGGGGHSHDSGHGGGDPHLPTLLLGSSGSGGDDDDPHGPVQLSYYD
# [4] = tested on: HEK293; assay: EBV LMP1 TES2 canonical NF-kB signalling blockers – cell-based, HEK293, luciferase, cherry-pick, dose response (AID 588343); format: functional; conditions: Homo sapiens
# [5] = molecular target: Cytochrome P450 2C9 (Homo sapiens, UniProt P11712)
# [6] = molecular target: T1, Cytochrome P450 1A2 (Homo sapiens, UniProt P05177);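 also: PubChem cytochrome P450 panel assay, CYP1A2 panel member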
# T1 sequence (P05177 whole entry): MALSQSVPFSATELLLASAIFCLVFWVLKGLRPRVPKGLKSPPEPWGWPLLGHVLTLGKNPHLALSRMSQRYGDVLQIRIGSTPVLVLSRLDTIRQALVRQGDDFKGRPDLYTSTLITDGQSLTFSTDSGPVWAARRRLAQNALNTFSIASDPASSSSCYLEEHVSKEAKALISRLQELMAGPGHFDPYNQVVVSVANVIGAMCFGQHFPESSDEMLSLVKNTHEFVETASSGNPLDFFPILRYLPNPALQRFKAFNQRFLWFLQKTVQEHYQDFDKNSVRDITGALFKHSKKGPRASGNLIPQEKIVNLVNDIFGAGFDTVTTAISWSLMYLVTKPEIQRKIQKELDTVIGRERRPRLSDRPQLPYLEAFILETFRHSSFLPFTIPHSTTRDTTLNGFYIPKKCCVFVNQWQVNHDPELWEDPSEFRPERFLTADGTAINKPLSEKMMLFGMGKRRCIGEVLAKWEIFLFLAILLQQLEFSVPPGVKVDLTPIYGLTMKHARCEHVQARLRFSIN
# [7] = molecular target: Cannabinoid receptor 1 (Homo sapiens, UniProt P21554); assay: SAR analysis of antagonists of the Cannabinoid Receptor 1 using an Image-Based Assay. [Related pubchem assays (depositor defined):AID1961, AID1965]; format: functional
# Cannabinoid receptor 1, sequence (P21554 whole entry): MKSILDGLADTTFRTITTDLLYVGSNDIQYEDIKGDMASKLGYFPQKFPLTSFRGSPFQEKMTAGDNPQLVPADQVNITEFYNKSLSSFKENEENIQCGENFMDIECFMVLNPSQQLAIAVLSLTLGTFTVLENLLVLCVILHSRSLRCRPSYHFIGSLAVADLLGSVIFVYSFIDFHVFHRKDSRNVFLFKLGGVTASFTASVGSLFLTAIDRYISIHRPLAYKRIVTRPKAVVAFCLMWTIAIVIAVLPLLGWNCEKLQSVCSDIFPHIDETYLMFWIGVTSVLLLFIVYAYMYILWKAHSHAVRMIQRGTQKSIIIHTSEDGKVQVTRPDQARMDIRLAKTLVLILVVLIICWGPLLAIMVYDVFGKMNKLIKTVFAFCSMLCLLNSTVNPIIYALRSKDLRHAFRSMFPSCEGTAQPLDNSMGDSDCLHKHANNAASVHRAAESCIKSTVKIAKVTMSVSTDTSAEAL
# [8] = molecular target: T2, Cannabinoid receptor 2 (Homo sapiens, UniProt P34972); assay: SAR analysis of agonists of the Cannabinoid Receptor 2 using an Image-Based Assay - Set 2. [Related pubchem assays (depositor defined):AID1961, AID1965]; format: functional
# T2 sequence (P34972 whole entry): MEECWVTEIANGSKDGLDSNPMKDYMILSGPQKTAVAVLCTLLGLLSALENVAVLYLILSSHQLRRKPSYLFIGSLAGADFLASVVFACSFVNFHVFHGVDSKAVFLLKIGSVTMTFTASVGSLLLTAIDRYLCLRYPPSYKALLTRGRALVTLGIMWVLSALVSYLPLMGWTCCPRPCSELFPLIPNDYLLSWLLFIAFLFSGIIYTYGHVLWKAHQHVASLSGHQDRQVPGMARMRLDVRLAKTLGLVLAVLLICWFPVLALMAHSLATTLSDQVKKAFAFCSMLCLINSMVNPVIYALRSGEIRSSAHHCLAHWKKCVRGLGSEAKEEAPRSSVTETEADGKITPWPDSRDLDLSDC
# [9] = molecular target: T3, Sentrin-specific protease 8 (Homo sapiens, UniProt Q96LD8); format: functional;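 also: luminescence read-out of SENP8 inhibition, dose-response confirmation following an ultra-high-throughput screen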
# T3 sequence (Q96LD8 whole entry): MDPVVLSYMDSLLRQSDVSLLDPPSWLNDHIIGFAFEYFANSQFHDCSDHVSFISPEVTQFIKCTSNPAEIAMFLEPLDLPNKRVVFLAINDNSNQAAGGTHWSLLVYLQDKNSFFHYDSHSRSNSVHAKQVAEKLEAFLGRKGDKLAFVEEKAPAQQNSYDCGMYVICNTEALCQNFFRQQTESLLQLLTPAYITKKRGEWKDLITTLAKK
# [10] = molecular target: T4, G-protein coupled receptor 55 (Homo sapiens, UniProt Q9Y2T6); assay: selective activators of receptor GPR55 – imaging, U2OS cells, beta-arrestin-GFP redistribution, primary screen (AID 1961); format: functional
# T4 sequence (Q9Y2T6 whole entry): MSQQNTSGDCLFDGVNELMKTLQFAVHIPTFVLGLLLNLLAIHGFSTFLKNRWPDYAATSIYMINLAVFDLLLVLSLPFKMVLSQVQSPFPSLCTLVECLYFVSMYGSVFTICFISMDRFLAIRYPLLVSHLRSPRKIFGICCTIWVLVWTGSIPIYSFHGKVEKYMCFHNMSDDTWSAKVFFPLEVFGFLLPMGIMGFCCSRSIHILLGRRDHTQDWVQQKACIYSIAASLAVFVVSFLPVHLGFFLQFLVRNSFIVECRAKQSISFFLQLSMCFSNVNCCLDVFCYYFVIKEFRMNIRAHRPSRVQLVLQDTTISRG
# [11] = molecular target: T5, Caspase-3 (Homo sapiens, UniProt P42574); format: functional;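 also: Dose-response selectivity test against caspase-3 for candidate inhibitors of sentrin-specific proteases (SENPs)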
# T5 sequence (P42574 whole entry): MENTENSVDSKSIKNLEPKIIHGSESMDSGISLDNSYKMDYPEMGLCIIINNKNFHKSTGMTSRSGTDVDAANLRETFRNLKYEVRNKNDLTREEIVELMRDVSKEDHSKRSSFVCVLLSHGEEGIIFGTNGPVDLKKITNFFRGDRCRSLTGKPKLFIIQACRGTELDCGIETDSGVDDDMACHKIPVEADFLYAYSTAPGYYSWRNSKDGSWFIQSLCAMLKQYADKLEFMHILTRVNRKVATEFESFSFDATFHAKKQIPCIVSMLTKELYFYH
# [12] = viability loss in HepG2 hepatoma cells – cell-based, ATP luminescence, cherry-pick, activator set 2, cytotoxicity control, dose response (AID 1053143); format: functional
# [13] = molecular target: T2, Cannabinoid receptor 2; assay: SAR analysis of antagonists of the Cannabinoid Receptor 2 using an Image-Based Assay - Set 2. [Related pubchem assays (depositor defined):AID1961, AID1965]; format: functional
# [14] = molecular target: T6, Sentrin-specific protease 6 (Homo sapiens, UniProt Q9GZR1); format: functional;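 also: Luminescence-based dose-response confirmatory assay of SENP6 inhibition, following up an ultra-high-throughput screen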
# T6 sequence (Q9GZR1 whole entry): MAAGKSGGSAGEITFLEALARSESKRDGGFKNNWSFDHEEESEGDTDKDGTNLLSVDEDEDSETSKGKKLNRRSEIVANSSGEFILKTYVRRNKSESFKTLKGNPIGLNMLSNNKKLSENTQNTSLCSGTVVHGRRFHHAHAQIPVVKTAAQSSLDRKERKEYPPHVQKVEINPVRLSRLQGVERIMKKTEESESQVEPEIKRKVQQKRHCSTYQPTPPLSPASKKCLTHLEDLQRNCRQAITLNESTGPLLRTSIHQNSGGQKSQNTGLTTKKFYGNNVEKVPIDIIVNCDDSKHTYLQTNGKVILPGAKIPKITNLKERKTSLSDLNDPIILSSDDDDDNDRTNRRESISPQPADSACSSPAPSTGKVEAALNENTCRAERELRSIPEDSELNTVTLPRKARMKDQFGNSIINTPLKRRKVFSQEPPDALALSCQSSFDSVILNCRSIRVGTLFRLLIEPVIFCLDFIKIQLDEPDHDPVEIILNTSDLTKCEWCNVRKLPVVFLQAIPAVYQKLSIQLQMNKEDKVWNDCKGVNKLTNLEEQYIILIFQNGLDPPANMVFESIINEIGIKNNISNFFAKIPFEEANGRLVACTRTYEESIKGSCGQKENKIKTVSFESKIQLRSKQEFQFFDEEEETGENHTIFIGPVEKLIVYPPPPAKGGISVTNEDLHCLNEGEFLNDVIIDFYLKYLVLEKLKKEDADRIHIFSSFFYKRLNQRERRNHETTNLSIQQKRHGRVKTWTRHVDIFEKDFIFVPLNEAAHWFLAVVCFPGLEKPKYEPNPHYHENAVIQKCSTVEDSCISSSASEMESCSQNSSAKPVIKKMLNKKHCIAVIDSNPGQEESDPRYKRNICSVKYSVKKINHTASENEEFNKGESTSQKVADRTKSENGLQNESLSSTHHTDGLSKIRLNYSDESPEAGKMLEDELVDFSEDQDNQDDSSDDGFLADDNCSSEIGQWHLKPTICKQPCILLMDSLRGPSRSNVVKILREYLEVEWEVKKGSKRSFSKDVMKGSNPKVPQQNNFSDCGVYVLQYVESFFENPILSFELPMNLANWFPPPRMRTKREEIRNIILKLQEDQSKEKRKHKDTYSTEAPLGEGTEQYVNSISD
# [15] = molecular target: T4, G-protein coupled receptor 55; assay: SAR analysis of selective Agonists of GPR55 using an Image-Based Assay. [Related pubchem assays (depositor defined):AID1961, AID1965]; format: functional
# [16] = molecular target: T7, Sentrin-specific protease 7 (Homo sapiens, UniProt Q9BQF6); format: functional;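 also: Luminescence-based dose-response confirmation of ultra-high-throughput screening hits, measuring inhibition of SENP7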
# T7 sequence (Q9BQF6 whole entry): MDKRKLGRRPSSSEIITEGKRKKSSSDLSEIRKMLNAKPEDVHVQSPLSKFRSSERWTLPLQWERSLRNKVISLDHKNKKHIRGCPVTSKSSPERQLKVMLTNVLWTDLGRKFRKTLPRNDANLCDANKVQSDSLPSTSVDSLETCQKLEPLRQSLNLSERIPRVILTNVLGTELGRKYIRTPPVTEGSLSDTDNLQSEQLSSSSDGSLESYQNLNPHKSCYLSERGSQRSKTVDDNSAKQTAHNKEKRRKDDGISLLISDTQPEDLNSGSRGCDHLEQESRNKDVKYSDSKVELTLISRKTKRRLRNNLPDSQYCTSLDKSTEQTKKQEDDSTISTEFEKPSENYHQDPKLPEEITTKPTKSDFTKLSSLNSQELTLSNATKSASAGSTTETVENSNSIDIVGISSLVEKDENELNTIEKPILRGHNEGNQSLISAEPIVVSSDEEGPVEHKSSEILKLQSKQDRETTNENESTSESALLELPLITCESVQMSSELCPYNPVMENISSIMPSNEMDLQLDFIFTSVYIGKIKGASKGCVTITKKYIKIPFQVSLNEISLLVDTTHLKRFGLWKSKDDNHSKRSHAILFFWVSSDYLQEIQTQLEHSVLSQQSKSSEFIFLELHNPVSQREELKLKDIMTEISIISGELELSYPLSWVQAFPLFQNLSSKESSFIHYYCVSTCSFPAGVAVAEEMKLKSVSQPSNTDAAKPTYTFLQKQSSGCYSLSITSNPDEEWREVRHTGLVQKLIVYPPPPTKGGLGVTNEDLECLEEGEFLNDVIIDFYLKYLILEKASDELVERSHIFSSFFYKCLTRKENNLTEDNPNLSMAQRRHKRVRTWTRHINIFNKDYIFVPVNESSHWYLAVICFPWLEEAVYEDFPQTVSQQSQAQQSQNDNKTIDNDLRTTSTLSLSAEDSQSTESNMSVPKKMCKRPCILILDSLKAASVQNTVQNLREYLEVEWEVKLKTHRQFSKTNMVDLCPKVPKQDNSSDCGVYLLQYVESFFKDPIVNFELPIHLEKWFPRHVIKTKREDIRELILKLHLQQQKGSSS
# [17] = molecular target: Nucleotide-binding oligomerization domain-containing protein 2 (Homo sapiens, UniProt Q9HC29); assay: inhibition of NOD2-driven NF-kB reporter – cell-based, luminescence, uHTS, HEK293 (AID 1566); format: functional
# Nucleotide-binding oligomerization domain-containing protein 2, sequence (Q9HC29 whole entry, the tested form may be a part): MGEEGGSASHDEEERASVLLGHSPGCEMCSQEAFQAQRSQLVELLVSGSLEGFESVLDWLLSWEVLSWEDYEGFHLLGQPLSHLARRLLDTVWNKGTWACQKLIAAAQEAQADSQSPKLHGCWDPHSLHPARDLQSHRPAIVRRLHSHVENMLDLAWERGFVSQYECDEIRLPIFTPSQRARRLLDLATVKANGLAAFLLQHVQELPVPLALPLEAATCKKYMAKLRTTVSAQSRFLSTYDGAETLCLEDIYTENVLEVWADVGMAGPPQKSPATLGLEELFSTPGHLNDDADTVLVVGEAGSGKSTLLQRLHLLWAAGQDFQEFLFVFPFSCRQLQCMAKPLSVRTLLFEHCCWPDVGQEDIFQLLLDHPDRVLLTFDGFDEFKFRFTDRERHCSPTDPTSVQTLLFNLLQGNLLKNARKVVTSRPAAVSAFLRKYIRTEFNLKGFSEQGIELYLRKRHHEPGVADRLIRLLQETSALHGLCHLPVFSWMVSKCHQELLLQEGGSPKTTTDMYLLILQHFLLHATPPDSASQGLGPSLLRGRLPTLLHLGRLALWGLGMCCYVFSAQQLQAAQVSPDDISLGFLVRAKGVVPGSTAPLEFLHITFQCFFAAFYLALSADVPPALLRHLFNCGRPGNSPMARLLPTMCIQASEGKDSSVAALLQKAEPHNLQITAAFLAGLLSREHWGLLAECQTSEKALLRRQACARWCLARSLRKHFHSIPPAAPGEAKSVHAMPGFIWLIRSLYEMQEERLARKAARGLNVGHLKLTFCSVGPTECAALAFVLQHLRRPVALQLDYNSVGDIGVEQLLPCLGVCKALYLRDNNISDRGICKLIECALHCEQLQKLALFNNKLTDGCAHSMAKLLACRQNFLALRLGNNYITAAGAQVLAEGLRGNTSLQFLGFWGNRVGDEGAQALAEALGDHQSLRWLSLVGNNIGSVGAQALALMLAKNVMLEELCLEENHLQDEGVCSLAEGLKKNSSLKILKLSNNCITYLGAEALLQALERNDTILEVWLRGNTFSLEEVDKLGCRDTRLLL
# [18] = Counterscreen for inhibitors of Trypanosoma brucei methionyl tRNA synthetase (MetRS): Luminescence-based cell-based high throughput dose response assay to identify compounds that are cytotoxic to Jurkat human T lymphocyte cells.; format: functional
# [19] = tested on: Vero; assay: viability of Vero cells under compound – cytotoxicity control for flavivirus capping enzyme inhibitors (AID 588742); format: functional; conditions: Chlorocebus sabaeus
# [20] = tested on: HEK293; assay: cells; format: functional, cell-based; conditions: Homo sapiens
# [21] = tested on: HEK293; assay: cells; format: functional, cell-based; conditions: Homo sapiens; remark: listed apart in the source
# [22] = tested on: HEK293; assay: NOD2 signaling inhibitors in MDP-stimulated cells, cell-based, uHTS, luminescence (AID 2001); format: functional; conditions: Homo sapiens
# [23] = tested on: HEK293; assay: inhibition of NOD1-driven NF-kB reporter – cell-based, luminescence, uHTS, primary screen (AID 1578); format: functional; conditions: Homo sapiens
# [24] = tested on: HEK293; assay: cells; format: functional, cell-based; conditions: Homo sapiens; remark: listed apart in the source
# [25] = molecular target: Heat shock protein HSP 90-alpha (Homo sapiens, UniProt P07900); format: functional, organism-based
# [26] = molecular target: Genome polyprotein (dengue virus type 2, UniProt P29990); assay: flavivirus cap methylation enzyme inhibition – biochemical, confirmation dose response, primary screen (AID 588689); format: functional
# Genome polyprotein, sequence (P29990 2492-3391 limits assumed): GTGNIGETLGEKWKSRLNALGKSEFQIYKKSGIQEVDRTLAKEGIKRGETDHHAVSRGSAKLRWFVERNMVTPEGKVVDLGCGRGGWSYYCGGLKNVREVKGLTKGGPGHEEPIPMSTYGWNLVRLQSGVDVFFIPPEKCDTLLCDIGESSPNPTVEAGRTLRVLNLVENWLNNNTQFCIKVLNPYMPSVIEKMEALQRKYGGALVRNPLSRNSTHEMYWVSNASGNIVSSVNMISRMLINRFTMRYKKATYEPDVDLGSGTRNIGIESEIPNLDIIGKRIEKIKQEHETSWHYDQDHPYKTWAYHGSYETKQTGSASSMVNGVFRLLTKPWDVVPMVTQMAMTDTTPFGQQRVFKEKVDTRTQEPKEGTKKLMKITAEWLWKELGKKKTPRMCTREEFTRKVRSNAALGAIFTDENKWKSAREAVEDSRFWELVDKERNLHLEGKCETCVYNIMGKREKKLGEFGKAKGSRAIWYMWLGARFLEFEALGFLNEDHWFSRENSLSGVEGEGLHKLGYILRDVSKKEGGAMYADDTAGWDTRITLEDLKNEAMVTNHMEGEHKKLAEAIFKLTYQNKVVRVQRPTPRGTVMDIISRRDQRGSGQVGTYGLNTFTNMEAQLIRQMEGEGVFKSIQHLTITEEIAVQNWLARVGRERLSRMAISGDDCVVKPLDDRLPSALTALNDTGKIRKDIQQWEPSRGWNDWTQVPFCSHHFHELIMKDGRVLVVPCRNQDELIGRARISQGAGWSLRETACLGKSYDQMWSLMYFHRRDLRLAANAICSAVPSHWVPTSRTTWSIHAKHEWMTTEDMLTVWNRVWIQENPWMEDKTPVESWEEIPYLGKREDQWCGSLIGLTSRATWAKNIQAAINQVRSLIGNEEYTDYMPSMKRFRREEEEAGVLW
# [27] = Luminescence Cell-Based Dose Retest to Confirm Inhibitors of Cancer Stem Cells. [Related pubchem assays (depositor defined):AID2717, AID2721]; format: functional; conditions: Homo sapiens
# [28] = tested on: CHO; assay: CHO cell viability loss, potency – luminescence, cytotoxicity control for TLR9-MyD88 binding inhibitor project, dose response (AID 588339); format: functional, cell-based, hamster; conditions: Cricetulus griseus;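 also: CHO cells stably coexpressing TLR9 and MyD88 fusions from primary screen; compound exposure lasted 48 hours before viability readout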
# Lysine-specific demethylase 4C, sequence (Q9H3R0 whole entry): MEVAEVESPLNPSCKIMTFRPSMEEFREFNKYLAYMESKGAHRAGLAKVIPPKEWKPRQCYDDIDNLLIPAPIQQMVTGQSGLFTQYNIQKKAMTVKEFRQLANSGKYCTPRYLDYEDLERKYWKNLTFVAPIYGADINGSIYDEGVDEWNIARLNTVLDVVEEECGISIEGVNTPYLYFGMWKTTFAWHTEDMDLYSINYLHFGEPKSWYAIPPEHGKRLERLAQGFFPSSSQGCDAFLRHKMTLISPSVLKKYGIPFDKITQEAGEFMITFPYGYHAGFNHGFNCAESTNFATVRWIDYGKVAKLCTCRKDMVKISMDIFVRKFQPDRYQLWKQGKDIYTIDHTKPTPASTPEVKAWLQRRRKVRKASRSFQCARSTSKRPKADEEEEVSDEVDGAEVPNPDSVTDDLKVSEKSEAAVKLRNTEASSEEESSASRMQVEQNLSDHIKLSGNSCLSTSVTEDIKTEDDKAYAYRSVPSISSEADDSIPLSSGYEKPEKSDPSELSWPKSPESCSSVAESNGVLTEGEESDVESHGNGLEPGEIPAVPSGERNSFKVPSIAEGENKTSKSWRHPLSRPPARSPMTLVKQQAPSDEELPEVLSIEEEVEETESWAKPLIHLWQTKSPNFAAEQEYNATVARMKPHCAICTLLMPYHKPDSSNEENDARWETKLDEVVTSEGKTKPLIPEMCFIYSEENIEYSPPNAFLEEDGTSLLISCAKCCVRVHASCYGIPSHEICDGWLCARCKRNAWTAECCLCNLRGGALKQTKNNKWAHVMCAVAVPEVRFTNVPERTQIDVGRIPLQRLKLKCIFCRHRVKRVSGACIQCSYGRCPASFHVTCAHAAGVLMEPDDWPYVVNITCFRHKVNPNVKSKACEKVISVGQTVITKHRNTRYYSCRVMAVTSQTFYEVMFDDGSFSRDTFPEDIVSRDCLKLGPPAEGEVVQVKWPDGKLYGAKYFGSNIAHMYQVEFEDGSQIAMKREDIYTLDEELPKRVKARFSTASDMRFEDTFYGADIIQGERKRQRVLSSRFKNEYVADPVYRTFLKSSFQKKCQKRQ
structure (smiles),measurement,setting,value
c1ccc2cc(CCO[C@H]3CCCCO3)ncc2c1,AC50,[1],11.3 µM (active)
COc1ccc(-c2csc3ncnc(NCCN4CCOCC4)c23)cc1,IC50,[2],50.7 µM (inactive)
same,AC50,[3],21.3 µM (active)
same,AC50,[4],25.3 µM (active)
COc1cc(C(=O)NCc2ccc(OCCN(C)C)cc2)cc(OC)c1OC [TRIMETHOBENZAMIDE],AC50,[5],inactive
same,AC50,[6],inactive
Cc1ccc(S(=O)(=O)O)cc1.c1cc2c(c(NC3=NCCN3)c1)CCCC2,AC50,[6],inactive
CC(C)=CC(=O)Nc1ccc(OCc2ccccc2)cc1,IC50,[7],> 32 µM (inactive)
same,EC50,[8],> 32 µM (inactive)
same,IC50,[9],28.6 µM (active)
same,EC50,[10],2.34 µM (active)
same,IC50,[11],20.8 µM (active)
same,AC50,[12],> 52 µM (inactive)
same,IC50,[13],> 32 µM (inactive)
same,IC50,[14],25.9 µM (active)
same,EC50,[15],1.89 µM (active)
same,IC50,[16],8.82 µM (active)
O=C(NCc1cc(Br)cc(Br)c1OC(=O)c1ccccc1[N+](=O)[O-])c1ccccc1,EC50,[17],18.6 µM (active)
same,IC50,[18],50.3 µM (inactive)
same,CC50,[19],> 40 µM (active)
same,IC50,[20],5.22 µM (active)
same,IC50,[21],> 20 µM (inactive)
same,IC50,[22],5.6 µM (active)
same,EC50,[23],6.43 µM (active)
same,IC50,[24],> 20 µM (inactive)
CC1(C)CC[C@]2(C(=O)O)CC[C@]3(C)C(=CC[C@@H]4[C@@]5(C)CC[C@H](O[C@@H]6O[C@H](C(=O)O)[C@@H](O)[C@H](O[C@@H]7OC[C@H](O)[C@H](O)[C@H]7O)[C@H]6O)C(C)(C)[C@@H]5CC[C@]43C)[C@@H]2C1,AC50,[25],0.649 µM (active)
same,IC50,[26],31 µM (active)
same,CC50,[19],36.8 µM (active)
same,AC50,[27],2.85 µM (active)
CNC(=S)N/N=C/c1ccc(OCc2ccccc2)c(Br)c1,IC50,[28],7.62 µM (active)
